Among the data in BindingDB's records for doi:10.1021/jm9509096 (1996) are IC50 values, retold here.

For this experiment, the target named is cGMP-specific 3',5'-cyclic phosphodiesterase (Cavia porcellus). The experiment can be described thus: Inhibition in vitro of Phosphodiesterase 5 isolated from guinea pig lung.

Structures are written as SMILES. Where a name gives a salt, the structure may show the parent alone. Where only a bound is given, the exact number is not on record here.

Take `COc1cc2cc(CO)c(CO)c(-c3cc(OC)c(OC)c(OC)c3)c2cc1OC` [[3-Hydroxymethyl-6,7-dimethoxy-1-(3,4,5-trimethoxy-phenyl)-naphthalen-2-yl]-methanol]: the 50% inhibitory concentration (IC50) – broadly, the midpoint of a concentration-inhibition curve – stood at 3 µM. The value for `COc1cc2cc(CO)c(CO)cc2cc1OC` [(3-Hydroxymethyl-6,7-dimethoxy-naphthalen-2-yl)-methanol] was > 100 µM; that for `COc1cc2cc(CO)c(CO)c(-c3cc[nH]c(=O)c3)c2cc1OC` [4-(2,3-Bis-hydroxymethyl-6,7-dimethoxy-naphthalen-1-yl)-3H-pyridin-2-one] was 10 µM. Next, `COc1cc(-c2c(CO)c(CO)cc3cc4c(cc23)OCO4)cc(OC)c1OC` [[7-Hydroxymethyl-5-(3,4,5-trimethoxy-phenyl)-naphtho[2,3-d][1,3]dioxol-6-yl]-methanol]: > 30 µM; `COc1ccc2c(-c3cc(OC)c(OC)c(OC)c3)c(CO)c(CO)cc2c1` [[3-Hydroxymethyl-6-methoxy-1-(3,4,5-trimethoxy-phenyl)-naphthalen-2-yl]-methanol]: 8 µM. The value for `COc1cc2cc(CO)c(CO)c(Cc3cc(OC)c(OC)c(OC)c3)c2cc1OC` [[3-Hydroxymethyl-6,7-dimethoxy-1-(3,4,5-trimethoxy-benzyl)-naphthalen-2-yl]-methanol] was 20 µM; that for `CCOc1cc2cc(CO)c(CO)c(-c3cc(N)c(OC)c(OC)c3)c2cc1OCC` [[1-(3-Amino-4,5-dimethoxy-phenyl)-6,7-diethoxy-3-hydroxymethyl-naphthalen-2-yl]-methanol; hydrochloride] was 30 µM. `COc1cc2cc(CO)c(CO)c(-c3cc(OC)c(OC)c(S(C)(=O)=O)c3)c2cc1OC` [[3-Hydroxymethyl-1-(3-methanesulfonyl-4,5-dimethoxy-phenyl)-6,7-dimethoxy-naphthalen-2-yl]-methanol]: the IC50 was determined as 53 µM. Next, `COc1cc2cc(CO)c(CO)c(-c3cc(OC)c(OC)c(C(=O)N(C)C)c3)c2cc1OC` [5-(2,3-Bis-hydroxymethyl-6,7-dimethoxy-naphthalen-1-yl)-2,3-dimethoxy-N,N-dimethyl-benzamide]: 30 µM.
